≈ marks a conversion by molar mass, not a printed value.
The molecules below were run on A. baumannii strain 5075 (AB5075) (assay: Macrolide sensitization / antibiotic resensitization: antibiotic MIC in presence of compound (broth microdilution)). Conditions: Acinetobacter baumannii; antibiotic alone, no compound (control row); AB5075; read-out: MIC (μg/mL) of the antibiotic.
Type: cell-based, Acinetobacter baumannii
Description: A. baumannii 5075 was plated on LB agar, then grown in CAMHB for 6-8 h and this culture was used to inoculate fresh CAMHB (5×10^5 CFU/mL). The resulting suspension was aliquoted (5 mL) into culture tubes and compound, from 100 mM DMSO stock, was added. One aliquot was not treated (control). 1 mL of each sample was transferred to a new culture tube and antibiotic was added. Rows 2-12 of a 96-well microtiter plate were filled with 100 μL/well from the remaining 4 mL bacterial subcultures, allowing the concentration of compound to be kept uniform throughout the antibiotic dilution procedure. Samples containing antibiotic were aliquoted (200 μL) into the corresponding first row wells of the microtiter plate. Row 1 wells were mixed 6 to 8 times then 100 μL was withdrawn and transferred to row 2. Row 2 wells were mixed 6 to 8 times, followed by a 100 μL transfer from row 2 to row 3. This procedure was repeated to serially dilute the rest of the rows of the microtiter plate, with the exception of the final row, to which no antibiotic was added (to check for growth of bacteria in the presence of compound alone). The microtiter plate was then covered, placed in a covered damp plastic container and incubated under stationary conditions at 37° C. After 16-18 hrs minimum inhibitory concentration (MIC) values were recorded as the lowest concentration of antibiotic at which there was no visible growth of bacteria. Experiments were carried out in duplicate each time and repeated at least twice.
The difference in antibiotic MIC between the control (no compound) sample, and the samples containing each compound was recorded as the fold-reduction.
Day Cultures (6 h) were subcultured to 5×10^5 CFU/mL in cation adjusted Mueller-Hinton broth (CAMHB). […] One milliliter of the resulting solution was aliquoted into a separate culture tube and was dosed with antibiotic so that the resulting concentration was the highest desirable concentration to be tested. Bacteria treated with antibiotic alone were used as a control. Row one of a 96-well plate was filled with 200 μL of the antibiotic/compound solution, and the remaining rows were filled with 100 μL of the remaining 4 mL bacterial subculture. The wells in row one were mixed five times before 100 μL was transferred to the following row (row two). Row two was then mixed five times, and 100 μL was transferred to row three. This process was repeated until the second to last row had been reached. The last row is left unexposed to antibiotic in order to serve as a negative control. The antibiotic only treated bacteria was plated by aliquoting 200 μL of the treated bacteria into row one and filling the remaining rows with untreated bacteria from the original bacteria subculture. The rows were mixed in the same way as described above. Plates were covered with Glad Press n'Seal and were incubated under stationary conditions at 37° C. for 16 hours. MIC values were recorded as the lowest concentration at which no bacterial growth was observed. Fold reductions were determined by comparison of the compound treated wells with the antibiotic only treated control wells.
`CO[C@H]1C[C@H](O[C@H]2[C@H](C)[C@@H](O[C@@H]3O[C@H](C)C[C@H](N(C)C)[C@H]3OC(C)=O)[C@@H](C)C[C@@]3(CO3)C(=O)[C@H](C)[C@@H](OC(C)=O)[C@@H](C)[C@@H](C)OC(=O)[C@@H]2C)O[C@@H](C)[C@@H]1OC(C)=O` [Troleandomycin, troleandomycin, reference compound] was tested, and the MIC was > 512 µg/mL.
With `CC(=O)NC[C@H]1CN(c2ccc(N3CCOCC3)c(F)c2)C(=O)O1` [Linezolid, linezolid, reference compound] the MIC was 256 µg/mL.
With `NC[C@H]1O[C@H](O[C@H]2[C@H](O)[C@@H](O[C@H]3O[C@H](CO)[C@@H](O)[C@H](N)[C@H]3O)[C@H](N)C[C@@H]2N)[C@H](O)[C@@H](O)[C@@H]1O` [Kanamycin, reference compound] the MIC was > 512 µg/mL.
`CCCCCCCCCC(=O)N[C@@H](Cc1c[nH]c2ccccc12)C(=O)N[C@H](CC(N)=O)C(=O)N[C@@H](CC(=O)O)C(=O)N[C@@H]1C(=O)NCC(=O)N[C@@H](CCCN)C(=O)N[C@@H](CC(=O)O)C(=O)N[C@H](C)C(=O)N[C@@H](CC(=O)O)C(=O)NCC(=O)N[C@H](CO)C(=O)N[C@@H]([C@H](C)CC(=O)O)C(=O)N[C@@H](CC(=O)c2ccccc2N)C(=O)O[C@@H]1C` [Daptomycin, reference compound] showed an MIC of 2050 µg/mL.
`NC[C@H]1O[C@H](O[C@H]2[C@H](O)[C@@H](O[C@H]3O[C@H](CO)[C@@H](O)[C@H](N)[C@H]3O)[C@H](N)C[C@@H]2N)[C@H](N)C[C@@H]1O` [Tobramycin, reference compound] was tested, and the MIC was 256 µg/mL.
With `[H]/N=C(/N)N[C@H]1[C@H](O)[C@@H](O)[C@H](O[C@@H]2O[C@@H](C)[C@](O)(C=O)[C@H]2O[C@@H]2O[C@@H](CO)[C@H](O)[C@@H](O)[C@@H]2NC)[C@@H](N/C(N)=N\[H])[C@@H]1O` [Streptomycin, reference compound] the MIC was > 512 µg/mL.

Same assay, conditions: antibiotic alone, no compound (control row); AB5075
With `CO[C@H]1C[C@H](O[C@H]2[C@H](C)[C@@H](O[C@@H]3O[C@H](C)C[C@H](N(C)C)[C@H]3O)[C@@H](C)C[C@@]3(CO3)C(=O)[C@H](C)[C@@H](O)[C@@H](C)[C@@H](C)OC(=O)[C@@H]2C)O[C@@H](C)[C@@H]1O` [Oleandomycin, oleandomycin, reference compound] the “MIC (μg/mL) of the antibiotic” value was 256 µg/mL.
With Neomycin [reference compound] the “MIC (μg/mL) of the antibiotic” value was 64 µg/mL.
With colistin [reference compound] the “MIC (μg/mL) of the antibiotic” value was 0.5 µg/mL.
With `CO[C@@H]1[C@@H](O[C@@H]2O[C@H](C)[C@@H](O[C@H]3C[C@@](C)(O)[C@@H](OC(=O)CC(C)C)[C@H](C)O3)[C@H](N(C)C)[C@H]2O)[C@@H](CC=O)C[C@@H](C)[C@@H](O)/C=C/C=C/C[C@@H](C)OC(=O)C[C@H]1OC(C)=O` [Josamycin, josamycin, reference compound] the “MIC (μg/mL) of the antibiotic” value was 128 µg/mL.
In the case of `NCC[C@H](O)C(=O)N[C@@H]1C[C@H](N)[C@@H](O[C@H]2O[C@H](CN)[C@@H](O)[C@H](O)[C@H]2O)[C@H](O)[C@H]1O[C@H]1O[C@H](CO)[C@@H](O)[C@H](N)[C@H]1O` [Amikacin, reference compound], the “MIC (μg/mL) of the antibiotic” value was 128 µg/mL.
With Gentamicin [reference compound] the “MIC (μg/mL) of the antibiotic” value was >512 µg/mL.
In the case of spiramycin [reference compound], the “MIC (μg/mL) of the antibiotic” value was >512 µg/mL.

These molecules were tested on A. baumannii strain 5075 (AB5075) (assay: Broth microdilution MIC determination of compound alone). Conditions: Acinetobacter baumannii; compound alone; AB5075; read-out: MIC.
Type: cell-based
Description: Our initial screening began by testing a diverse selection of 2-AI compounds from our internal library for their minimal inhibitory concentrations (MIC) against A. baumannii isolate 5075.
Day Cultures (6 h) were subcultured to 5×10^5 CFU/mL in cation adjusted Mueller-Hinton broth (CAMHB). Aliquots (1 mL) were placed in culture tubes, and compound was added from 100 mM stock solutions, such that the compound concentration equaled the highest concentration tested (200 μM or 64 μg/mL). Samples were then aliquoted (200 μL) into the first row of wells of a 96-well plate, with all remaining wells being filled with 100 μL of initial bacterial subculture. The wells in row one were mixed five times before 100 μL was transferred to the following row (row two). Row two was then mixed five times, and 100 μL was transferred to row three. This processed was repeated until the final row had been mixed. This process provided a serial dilution of the compound. Plates were covered with Glad Press n'Seal and were incubated under stationary conditions at 37° C. for 16 hours. MIC values were recorded as the lowest concentration at which no bacterial growth was observed.
In the case of `CCCCCCC(=O)Nc1ccc2[nH]c(N)nc2c1`, the MIC was > 200 µM.
For `CC1(C)CC(=O)N(c2ccc3[nH]c(N)nc3c2)C(=O)C1`, the MIC was > 200 µM.
For `Nc1nc(CCCCCc2cn(-c3ccc(C(=O)NCCc4ccccc4)cc3)nn2)c[nH]1`, the MIC was > 200 µM.
In the case of `Nc1nc(-c2ccc(NC(=O)c3ccccc3F)cc2)c[nH]1` [Compound 22], the MIC was > 200 µM.
`C/C(=C\c1ccccc1)CNC(=O)Cn1cc(CCCCCc2c[nH]c(N)n2)nn1` was tested, and the MIC was > 200 µM.
With `Nc1nc(CCCNC(=O)c2cc(Br)c(Br)[nH]2)c[nH]1` the MIC was > 200 µM.
For `CCCCCCCCCC(=O)NCCn1cc(CCCCCc2c[nH]c(N)n2)nn1`, the MIC was > 200 µM.
In the case of `Nc1nc(-c2ccc(NC(=O)c3ccc(C(F)(F)F)cc3)cc2)c[nH]1` [Compound 23], the MIC was 50 µM (≈ 17.3 µg/mL).
With `CCCCCCCCn1cc(Cc2ccccc2)nc1N` the MIC was > 200 µM.
For `Cc1ccc(C(=O)Nc2ccc3[nH]c(N)nc3c2)cc1`, the MIC was > 200 µM.
